Patent US20240368163A1, “COMPOUNDS AND METHODS FOR MODULATING SPLICING” (REMIX THERAPEUTICS INC., priority 2021, published 2024)
pIC50: −log10 of the molar value. Where two headings read alike, the source gives them in different places.

Assays:
HTT = assay: Splicing RT-qPCR assay, HTT mRNA canonical junction (CJ) and alternative junction (AJ); type: cell-based, human; conditions: Homo sapiens; for AC50: increase in AJ mRNA
Summary of the method: (§1)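 Cells: A673 (DMEM/10% FBS) or K562 (IMDM/10% FBS). Dose: 11-pt 3-fold, top 10 uM final, ≤0.25% DMSO, 24 h, 37 °C. Readout: RT-qPCR of CJ/AJ exon junctions, ΔΔCt vs housekeeper and DMSO, RQ to % response.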

SMN2 = assay: Splicing RT-qPCR panel, SMN2 canonical junction (CJ) mRNA; type: cell-based, human; conditions: Homo sapiens, read-out: SMN2 IC50 (decrease in CJ mRNA levels)
Summary of the method: as §1

Target C = assay: Splicing RT-qPCR panel, Target C canonical junction (CJ) mRNA; type: cell-based, human; conditions: Homo sapiens, read-out: Target C IC50 (decrease in CJ mRNA levels)
Summary of the method: as §1

[1] = Transwell assay for membrane efflux and permeability; type: in vitro ADME, Canine; conditions: dog; MDCK-BCRP or MDCKII-MDR1 transwell, test compound 1 μM, 2 hours at 37° C.
Text: Compounds described herein were screened for cell membrane permeability and efflux in a transwell assay using Madin-Darby Canine Kidney (MDCK) cells expressing Breast Cancer Resistance Protein (BCRP) or subclone MDCKII cells expressing Multidrug Resistance Protein 1 (MDR1).
MDCK-BCRP or MDCKII-MDR1 Cells: The Netherlands Cancer Institute, High Glucose Dulbecco's Modified Eagle's Medium (DMEM): Gibco/Thermo Fisher Scientific, Fetal Bovine Serum (FBS): Coming, Hank's Balanced Salt Solution (HBSS) and Trypsin/EDTA: Gibco/Thermo Fisher Scientific, HTS Transwell-96 Well Permeable Supports: Coming Corporation, Millicell Epithelial Volt-Ohm: Millipore, Cellometer® Vision: Nexcelom Bioscience LLC, Infinite 200 PRO microplate reader: Tecan, MTS2/4 orbital shaker: IKA Labortechnik, HEPES/Penicillin/Streptomycin: Solarbio.
MDCK-BCRP or MDCKII-MDR1 cells were seeded to each of the wells of the transwell plate at a density of 1.6×10^6 cells/mL and the plate was incubated for 4-8 days with medium changes every two days. To perform the drug transport assay, cell monolayers were first washed three times with pre-warmed HBSS and then incubated with gentle shaking (150 rpm) for 30 min at 37° C. Stock solutions of test compounds (e.g., exemplary compounds of Formulas (I), (II), and (III)) and control compounds (e.g., metoprolol, prazosin, and/or imatinib) were prepared in DMSO and adjusted to a working solution using HBSS. The final concentration of test compounds was 1 μM with DMSO; 0.5%. The plates were incubated at 37° C. for 2 hours.

[2] = 24 h, decrease in CJ mRNA, A673 or K562 cells, 24 hours treatment, RT-qPCR, read-out: HTT CJ IC50
[3] = 24 h, A673 or K562 cells, 24 hours treatment, RT-qPCR
[4] = RT-qPCR panel, canonical junction mRNA, compound concentration having 50% response in CJ decrease, read-out: HTT IC50 (decrease in CJ mRNA levels)
[5] = RT-qPCR panel, canonical junction mRNA, compound concentration having 50% response in CJ decrease
[6] = gene panel, CJ qPCR, protocol of Example 142, read-out: HTT IC50 (decrease in CJ mRNA levels)
[7] = gene panel, CJ qPCR, protocol of Example 142

| pIC50 (HTT; [2]) | Structure (SMILES) | AC50 (HTT; [3]) | pIC50 (HTT; [4]) | pIC50 (SMN2; [5]) | pIC50 (Target C; [5]) | Papp at 2 h, 1 μM [1] | efflux ratio at 2 h, 1 μM [1] | pIC50 (HTT; [6]) | pIC50 (SMN2; [7]) | pIC50 (Target C; [7]) |
| --- | --- | --- | --- | --- | --- | --- | --- | --- | --- | --- |
| – | CN(c1ccc(-c2cc(F)c(-c3cn[nH]c3)c3cn[nH]c23)nn1)[C@@H]1C[C@H]2CC(F)(F)[C@@H](C1)N2 (stereo in doubt) [Compound 378, 6,6-difluoro-N-{6-[5-fluoro-4-(1H-pyrazol-4-yl)-1H-indazol-7-yl]pyridazin-3-yl}-N-methyl-8-azabicyclo[3.2.1]octan-3-amine] | < 100 nM | > 7.00 | > 7.00 | 6.00 to 7.00 | 2 to 6 ×10⁻⁶ cm/s | > 5 | – | – | – |
| 6.00 to 7.00 | c1nc2c(-c3cn[nH]c3)ccc(-c3ccc(OC4CCNCC4)nn3)c2s1 [Compound 183] | 100 to 1000 nM | 6.00 to 7.00 | 6.00 to 7.00 | 6.00 to 7.00 | < 2 ×10⁻⁶ cm/s | > 5 | – | – | – |
| – | CN(c1ccc(-c2ccc(-c3cn[nH]c3)c(OC(F)F)n2)nn1)[C@@H]1C[C@H]2CC[C@@H](C1)N2 [Compound 955] | – | – | – | – | < 2 ×10⁻⁶ cm/s | > 5 | > 7.00 | > 7.00 | 6.00 to 7.00 |
| – | CN(c1ccc(-c2ccc(-c3cn[nH]c3)c3ncsc23)nn1)[C@@H]1C[C@H]2CCC[C@@H](C1)N2 [Compound 226] | < 100 nM | > 7.00 | > 7.00 | > 7.00 | < 2 ×10⁻⁶ cm/s | > 5 | – | – | – |
| – | CN(c1ccc(-c2ccc(-n3cccn3)c3cn[nH]c23)nn1)[C@@H]1C[C@H]2CC[C@@H](C1)N2 [Compound 105] | 100 to 1000 nM | > 7.00 | > 7.00 | > 7.00 | < 2 ×10⁻⁶ cm/s | > 5 | – | – | – |
| – | CN(c1ccc(-c2ccc(-c3cn[nH]c3)c3ncsc23)nn1)[C@@H]1C[C@H]2CC(F)(F)[C@@H](C1)N2 (stereo in doubt) [Compound 379, 6,6-difluoro-N-methyl-N-{6-[4-(1H-pyrazol-4-yl)-1,3-benzothiazol-7-yl]pyridazin-3-yl}-8-azabicyclo [3.2.1]octan-3-amine] | < 100 nM | > 7.00 | > 7.00 | 6.00 to 7.00 | 2 to 6 ×10⁻⁶ cm/s | 1.5 to 5 | – | – | – |
| 6.00 to 7.00 | CC1(C)CC(Oc2ccc(-c3cc(F)c(-c4cn[nH]c4)c4cn[nH]c34)nn2)CC(C)(C)N1 [Compound 307] | 100 to 1000 nM | 6.00 to 7.00 | > 7.00 | 6.00 to 7.00 | 2 to 6 ×10⁻⁶ cm/s | > 5 | – | – | – |
| – | c1nc2c(-c3cn[nH]c3)ccc(-c3ccc(N[C@@H]4C[C@H]5CCC[C@@H](C4)N5)nn3)c2s1 [Compound 215] | < 100 nM | > 7.00 | > 7.00 | > 7.00 | < 2 ×10⁻⁶ cm/s | > 5 | – | – | – |
| 5.00 to 6.00 | CC1(C)CC(Oc2ccc(-c3ccc(-c4cn[nH]c4)c4ncsc34)nn2)CCN1 (stereo not shown) [Compound 182] | 1000 to 10000 nM | 5.00 to 6.00 | 6.00 to 7.00 | 5.00 to 6.00 | < 2 ×10⁻⁶ cm/s | > 5 | – | – | – |
| < 5.00 | c1nc2c(-c3cn[nH]c3)ccc(-c3ccc(N4CCC(NC5CC5)C4)nn3)c2s1 (stereo not shown) [Compound 337] | 1000 to 10000 nM | < 5.00 | 6.00 to 7.00 | < 5.00 | 2 to 6 ×10⁻⁶ cm/s | < 1.5 | – | – | – |
| – | COc1nc(-c2ccc(OC3CC4CC(F)(F)C(C3)N4)nn2)cc(F)c1-c1cn[nH]c1 (stereo not shown) [Compound 969] | – | – | – | – | 2 to 6 ×10⁻⁶ cm/s | > 5 | 5.00 to 6.00 | 5.00 to 6.00 | < 5.00 |
| – | CN(c1ccc(-c2ccc(-c3cn[nH]c3)cn2)nn1)[C@@H]1C[C@H]2CC[C@@H](C1)N2 [Compound 915] | – | – | – | – | < 2 ×10⁻⁶ cm/s | < 1.5 | 6.00 to 7.00 | < 5.00 | 5.00 to 6.00 |
| – | Cc1cc(-c2ccc(-c3cnc(N(C)[C@@H]4C[C@H]5CCC[C@@H](C4)N5)nn3)c3scnc23)sn1 [Compound 580] | – | > 7.00 | > 7.00 | > 7.00 | < 2 ×10⁻⁶ cm/s | > 5 | – | – | – |
| – | CN(c1ccc(-c2ccc(-c3cn[nH]c3)c3ncsc23)nn1)[C@@H]1C[C@H]2CC[C@@H](C1)N2 [Compound 213] | < 100 nM | > 7.00 | > 7.00 | > 7.00 | < 2 ×10⁻⁶ cm/s | > 5 | – | – | – |
| – | CCN(c1ccc(-c2ccc(-c3cn[nH]c3)c3ncsc23)nn1)[C@@H]1C[C@H]2CCC[C@@H](C1)N2 [Compound 228] | 100 to 1000 nM | > 7.00 | > 7.00 | > 7.00 | < 2 ×10⁻⁶ cm/s | > 5 | – | – | – |
| – | CCOc1nc(-c2ccc(OC3CC(C)(C)NC(C)(C)C3)nn2)cc(F)c1-c1cn[nH]c1 [Compound 966] | – | – | – | – | 2 to 6 ×10⁻⁶ cm/s | > 5 | > 7.00 | > 7.00 | > 7.00 |
| – | Fc1cc(-c2ccc(OC3CC4CC(F)(F)C(C3)N4)nn2)c2[nH]ncc2c1-c1cn[nH]c1 (stereo not shown) [Compound 313, 7-[6-({6,6-difluoro-8-azabicyclo[3.2.1]octan-3-yl}oxy)pyridazin-3-yl]-5-fluoro-4-(1H-pyrazol-4-yl)-1H-indazole] | 100 to 1000 nM | > 7.00 | > 7.00 | 6.00 to 7.00 | – | < 1.5 | – | – | – |
| – | COc1nc(-c2ccc(N3CCC(NC(C)(C)C)C3)nn2)ccc1-c1cn[nH]c1 (stereo not shown) [Compound 956] | – | – | – | – | 2 to 6 ×10⁻⁶ cm/s | > 5 | > 7.00 | > 7.00 | 6.00 to 7.00 |
| – | COc1cc(-c2ccc(-c3ccc(N(C)C4CC(C)(C)NC(C)(C)C4)nn3)c3scnc23)cnn1 [Compound 330] | < 100 nM | > 7.00 | > 7.00 | > 7.00 | 2 to 6 ×10⁻⁶ cm/s | > 5 | – | – | – |
| – | Cc1nc(-c2ccc(-c3cnc(N(C)[C@@H]4C[C@H]5CCC[C@@H](C4)N5)nn3)c3scnc23)cs1 [Compound 579] | – | 6.00 to 7.00 | 6.00 to 7.00 | 6.00 to 7.00 | < 2 ×10⁻⁶ cm/s | > 5 | – | – | – |
| – | CN(c1ccc(-c2cc(F)c(-c3cnn(C)c3)c3cn[nH]c23)nn1)[C@@H]1C[C@H]2CC[C@@H](C1)N2 [Compound 291] | < 100 nM | > 7.00 | > 7.00 | > 7.00 | < 2 ×10⁻⁶ cm/s | > 5 | – | – | – |
| – | CN(c1ccc(-c2ccc(-c3cn[nH]c3)c3ncsc23)nn1)[C@H]1C[C@]2(C)CC[C@](C)(C1)N2 [Compound 204] | < 100 nM | > 7.00 | > 7.00 | > 7.00 | < 2 ×10⁻⁶ cm/s | > 5 | – | – | – |

| Structure (SMILES) | pIC50 (HTT; [2]) | AC50 (HTT; [3]) | pIC50 (HTT; [4]) | pIC50 (SMN2; [5]) | pIC50 (Target C; [5]) | Papp at 2 h, 1 μM [1] | efflux ratio at 2 h, 1 μM [1] | pIC50 (HTT; [6]) | pIC50 (SMN2; [7]) | pIC50 (Target C; [7]) |
| --- | --- | --- | --- | --- | --- | --- | --- | --- | --- | --- |
| CCN(c1ccc(C2=CC=C(c3cn[nH]c3)C3N=CSC23)nn1)[C@@H]1C[C@H]2CC[C@@H](C1)N2 (stereo partly shown) [Compound 203] | 6.00 to 7.00 | 100 to 1000 nM | 6.00 to 7.00 | > 7.00 | 6.00 to 7.00 | < 2 ×10⁻⁶ cm/s | > 5 | – | – | – |
| CN(c1ccc(-c2ccc(-c3cn[nH]c3)c3cn[nH]c23)nn1)C1CC(C)(C)NC(C)(C)C1 [Compound 137] | 6.00 to 7.00 | 100 to 1000 nM | 6.00 to 7.00 | 6.00 to 7.00 | 5.00 to 6.00 | < 2 ×10⁻⁶ cm/s | > 5 | – | – | – |
